According to patent US20220306695A1, “COMPSTATIN ANALOGUES AND THEIR MEDICAL USES” (priority 2019, published 2022):
Read-outs that look alike come from different tables or passages of the source. Starred links: 1 amine or outer side, 2 acyl side, 3 side chain; linkers in the order of their positions; H or OH if unused. Positions of bridges follow the written chain, without caps; N, C: chain ends. Non-standard residues stand in square brackets, D forms with d. Residues, ends and D or L forms follow the SMILES beside them. Groups on a side chain read outwards from the residue. *: point of attachment. Trp(1-Me) = Cn1cc(C[C@H](N)C(=O)O)c2ccccc21; C18 diacid = O=C(O)CCCCCCCCCCCCCCCCC(=O)*; γGlu = O=C(O)[C@H](CCC(=O)[*:2])N[*:1]; AEEA = NCCOCCOCC(=O)O; Sar = CNCC(=O)O

Experiments:
[1] = test system: classical complement pathway; assay: In vitro haemolysis assay (inhibition of classical complement pathway); assay type: cell-based, human
Method in brief: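 Serially diluted compound (9 points) was preincubated 15 min at room temperature with diluted human serum, titrated per batch to give 70-90% maximal haemolysis, in Tris/casein buffer pH 7.4 with Mg2+/Ca2+. Antibody-sensitized sheep erythrocytes were then added for 30 min at 37° C, and the reaction was stopped with EDTA. Haemolysis was read at A405, with IC50 from 4PL fit.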

in vivo = assay: in vivo; design: species or system Cynomolgus monkeys (Macaca fascicularis); conditions: male, cynomolgus monkey, sc, 1840 nmol/kg, t½
Method: Healthy male Cynomolgus monkeys (Macaca fascicularis) received single subcutaneous administrations of each test substance. Compounds were formulated in 20 mM phosphate adjusted with NaOH to pH 7.5 and mannitol for isotonicity and dosed at 1840 nmol/kg. Blood was collected from a femoral vein from each animal at the following times: Pre-dose, 1, 2, 4, 8, 24, 48, 72, 96 and 120 h (10 sampling times). Blood was collected into serum separation tubes and allowed to clot at room temperature. The tubes were centrifuged and resulting serum was aliquoted and snap-frozen over dry-ice and stored at nominally −80° C. until analysis. All NHP studies were performed in accordance with animal welfare laws and regulations, including approval of the study by a local ethical review process.
In order to assess pharmacokinetic half-life (t %/), serum samples isolated from non-human primates at specific time points after dosing were analysed for total drug compound after sample preparation by solid phase extraction (SPE) and liquid chromatography mass spectrometry (LC-MS/MS) using analogue internal standard. Single measurement of serum concentrations were used for calculation of the pharmacokinetic parameters using the non-compartmental approach in Phoenix WinNonlin 6.3. Plasma terminal elimination half-life (ty) was determined as In(2)/λz where λz is the magnitude of the slope of the log linear regression of the log concentration versus time profile during the terminal phase.

[2] = Solubility test at 10 mg/mL (visual inspection and light scattering); assay type: physicochemical; conditions: for Solubility, Condition 1 Acetate pH 4: 10 mg/mL compound in 100 mM acetate pH 4; for Solubility, Condition 2 Acetate pH 5: 10 mg/mL compound in 100 mM acetate pH 5; for Solubility, Condition 3 Phosphate pH 6: 10 mg/mL compound in 100 mM phosphate pH 6; for Solubility, Condition 4 Phosphate pH 7: 10 mg/mL compound in 100 mM phosphate pH 7; for Solubility, Condition 5 Phosphate pH 7.5: 10 mg/mL compound in 100 mM phosphate pH 7.5
Human C3 = biological target: T1, Human C3 (Homo sapiens, UniProt P01024); assay: Affinity measurement by surface plasmon resonance (SPR) with immobilized C3; assay type: binding; conditions: Table 7; immobilized C3, 25° C., pH 7.4
T1 construct: purchased Complement tech A1 13c (so in the source)
Method: Surface plasmon resonance (SPR) was used to characterize peptides with respect to their binding affinity (Kd) for C3. Human C3 (Complement tech cat #A1 13c) was immobilised on individual flow cells of CM5 sensor chips (GE Healthcare) using standard amine coupling to a density of approximately 3000 resonance units (RU) in a buffer consisting of 10 mM phosphate pH 7.4, 150 mM NaCl, 0.05% Tween20. For interaction experiments a multi-cycle experiment approach was used and performed using either a Biacore™ T200 or Biacore™ X100 instrument (GE Healthcare) at 25° C. Peptides were injected in increasing concentration series (5-8 different concentrations) for 60-120 s at a flow rate of 30 μL/min in a buffer consisting of 10 mM Tris buffer at pH 7.4, with 150 mM NaCl and 0.05% Tween20. This was followed by a dissociation period for up to 10 min. […] Sensorgrams were double-referenced (reference surface, blanks) prior to analysis of the kinetic profiles by globally fitting data to a 1:1 Langmuir binding model to obtain association and dissociation rates for calculation of the equilibrium dissociation constant Kd. Each peptide was tested at in at least 2 independent experiments.

[3] = Table 3, human serum, sensitized sheep red blood cells, read-out: IC50[nM], in vitro analysis of inhibition of hemolysis
[4] = Table 4, valine 3 versus isoleucine 3 pairs, read-out: CP hemolysis IC50

| SMILES | half-life (in vivo) [h] | Solubility by visual inspection and absorbance, condition 1, 2 and 3 ([2]; 10 mg/mL, acetate pH 4.0, acetate pH 5.0, phosphate pH 6.0, all exceeding 0.1 AU threshold) | Solubility by visual inspection and absorbance, condition 4 and 5 ([2]; 10 mg/mL, phosphate pH 7 and phosphate pH 7.5) | Kd (Human C3) [nM] | IC50 [1, 3] [nM] | IC50 [1, 4] [nM] | Solubility, Condition 1 Acetate pH 4 [2] | Solubility, Condition 2 Acetate pH 5 [2] | Solubility, Condition 3 Phosphate pH 6 [2] | Solubility, Condition 4 Phosphate pH 7 [2] | Solubility, Condition 5 Phosphate pH 7.5 [2] |
| --- | --- | --- | --- | --- | --- | --- | --- | --- | --- | --- | --- |
| CC[C@H](C)[C@H](NC(C)=O)C(=O)N[C@H]1CSSC[C@@H](C(=O)N[C@H](C(=O)N[C@@H](CCC(=O)O)C(=O)NCC(=O)N[C@@H](CCC(=O)O)C(N)=O)[C@@H](C)O)NC(=O)[C@H](CCCNC(=N)N)NC(=O)[C@H](Cc2c[nH]cn2)NC(=O)[C@H](CCC(=O)O)NC(=O)CNC(=O)[C@H](Cc2c[nH]c3ccccc23)NC(=O)[C@H](CC(=O)O)NC(=O)[C@H](CCC(N)=O)NC(=O)[C@H](Cc2c[nH]c3ccccc23)NC(=O)[C@H]([C@@H](C)CC)NC1=O [Compound 24] (Ac-ICIWQDWGEHRCTEGE-NH2; disulfide 2-12) |  | cloudy | good conditions for solubility | 28 | < 100 | 90 | − (denotes lack of solubility at the given condition, as UV absorbance at 340 nm exceeds 0.1 AU and/or it is visibly turbid or contains particles.) | − (denotes lack of solubility at the given condition, as UV absorbance at 340 nm exceeds 0.1 AU and/or it is visibly turbid or contains particles.) | − (denotes lack of solubility at the given condition, as UV absorbance at 340 nm exceeds 0.1 AU and/or it is visibly turbid or contains particles.) | + (denotes solubility at the given condition, as determined by UV absorbance being less than 0.1 AU at 340 nm and the sample being clear when manually inspected.) | + (denotes solubility at the given condition, as determined by UV absorbance being less than 0.1 AU at 340 nm and the sample being clear when manually inspected.) |
| CC[C@H](C)[C@H](NC(C)=O)C(=O)N[C@H]1CSSC[C@@H](C(=O)N[C@H](C(=O)NCC(=O)N[C@@H](C)C(=O)N[C@@H](CCC(=O)O)C(=O)N[C@@H](CO)C(N)=O)[C@@H](C)O)NC(=O)[C@H](CCCNC(=N)N)NC(=O)[C@H](Cc2c[nH]cn2)NC(=O)[C@H](CCC(=O)O)NC(=O)CNC(=O)[C@H](Cc2c[nH]c3ccccc23)NC(=O)[C@H](CC(=O)O)NC(=O)[C@H](CCC(N)=O)NC(=O)[C@H](Cc2c[nH]c3ccccc23)NC(=O)[C@H]([C@@H](C)CC)NC1=O [Compound 15] (Ac-ICIWQDWGEHRCTGAES-NH2; disulfide 2-12) |  |  |  | 14 | < 100 | 47 | + (denotes solubility at the given condition, as determined by UV absorbance being less than 0.1 AU at 340 nm and the sample being clear when manually inspected.) | − (denotes lack of solubility at the given condition, as UV absorbance at 340 nm exceeds 0.1 AU and/or it is visibly turbid or contains particles.) | − (denotes lack of solubility at the given condition, as UV absorbance at 340 nm exceeds 0.1 AU and/or it is visibly turbid or contains particles.) | + (denotes solubility at the given condition, as determined by UV absorbance being less than 0.1 AU at 340 nm and the sample being clear when manually inspected.) | + (denotes solubility at the given condition, as determined by UV absorbance being less than 0.1 AU at 340 nm and the sample being clear when manually inspected.) |
| CC[C@H](C)[C@H](NC(C)=O)C(=O)N[C@H]1CSSC[C@@H](C(=O)N[C@H](C(N)=O)[C@@H](C)O)NC(=O)[C@H](CCCNC(=N)N)NC(=O)[C@H](Cc2c[nH]cn2)NC(=O)[C@H](CCC(=O)O)NC(=O)CNC(=O)[C@H](Cc2c[nH]c3ccccc23)NC(=O)[C@H](CC(=O)O)NC(=O)[C@H](CCC(N)=O)NC(=O)[C@H](Cc2cn(C)c3ccccc23)NC(=O)[C@H]([C@@H](C)CC)NC1=O [Compound 4] (Ac-ICI[Trp(1-Me)]QDWGEHRCT-NH2; disulfide 2-12) |  |  |  | 1.5 | < 100 |  |  |  |  |  |  |

Continued, in another order:

| half-life (in vivo) [h] | Solubility by visual inspection and absorbance, condition 1, 2 and 3 ([2]; 10 mg/mL, acetate pH 4.0, acetate pH 5.0, phosphate pH 6.0, all exceeding 0.1 AU threshold) | Solubility by visual inspection and absorbance, condition 4 and 5 ([2]; 10 mg/mL, phosphate pH 7 and phosphate pH 7.5) | Kd (Human C3) [nM] | SMILES | IC50 [1, 3] [nM] | IC50 [1, 4] [nM] | Solubility, Condition 1 Acetate pH 4 [2] | Solubility, Condition 2 Acetate pH 5 [2] | Solubility, Condition 3 Phosphate pH 6 [2] | Solubility, Condition 4 Phosphate pH 7 [2] | Solubility, Condition 5 Phosphate pH 7.5 [2] |
| --- | --- | --- | --- | --- | --- | --- | --- | --- | --- | --- | --- |
| 112 |  |  |  | CC[C@H](C)[C@@H]1NC(=O)[C@@H](NC(=O)[C@H](Cc2ccccc2)NC(=O)[C@H](CCC(=O)O)NC(=O)[C@H](CO)NC(C)=O)CSSC[C@@H](C(=O)N(C)CC(=O)N[C@@H](CCC(=O)O)C(=O)NCC(=O)N[C@@H](CCC(=O)O)C(=O)NCCOCCOCC(=O)NCCOCCOCC(=O)N[C@@H](CCCCNC(=O)CC[C@H](NC(=O)CNC(=O)CC[C@H](NC(=O)CCCCCCCCCCCCCCCCC(=O)O)C(=O)O)C(=O)O)C(N)=O)NC(=O)[C@H](CCCNC(=N)N)NC(=O)[C@H](Cc2c[nH]cn2)NC(=O)[C@H](CCC(=O)O)NC(=O)CNC(=O)[C@H](Cc2c[nH]c3ccccc23)NC(=O)[C@H](CCC(=O)O)NC(=O)[C@H](CCC(N)=O)NC(=O)[C@H](Cc2cn(C)c3ccccc23)NC1=O [Compound 124] (Ac-SEFCI[Trp(1-Me)]QEWGEHRC[Sar]EGE[AEEA][AEEA]K([γGlu-Gly-γGlu-C18 diacid])-NH2; disulfide 4-14) | < 100 |  |  |  |  |  |  |
|  |  |  | 1.4 | CC[C@H](C)[C@@H]1NC(=O)[C@@H](NC(=O)[C@H](Cc2ccccc2)NC(=O)[C@H](C)NC(=O)[C@H](CO)NC(=O)CNC(=O)[C@H](CCC(=O)O)NC(C)=O)CSSC[C@@H](C(=O)N(C)CC(=O)N[C@@H](CCC(=O)O)C(N)=O)NC(=O)[C@H](CCCNC(=N)N)NC(=O)[C@H](Cc2c[nH]cn2)NC(=O)[C@H](CCC(=O)O)NC(=O)CNC(=O)[C@H](Cc2c[nH]c3ccccc23)NC(=O)[C@H](CC(=O)O)NC(=O)[C@H](CCC(N)=O)NC(=O)[C@H](Cc2cn(C)c3ccccc23)NC1=O [Compound 53] (Ac-EGSAFCI[Trp(1-Me)]QDWGEHRC[Sar]E-NH2; disulfide 6-16) | < 100 |  | − (denotes lack of solubility at the given condition, as UV absorbance at 340 nm exceeds 0.1 AU and/or it is visibly turbid or contains particles.) | − (denotes lack of solubility at the given condition, as UV absorbance at 340 nm exceeds 0.1 AU and/or it is visibly turbid or contains particles.) | + (denotes solubility at the given condition, as determined by UV absorbance being less than 0.1 AU at 340 nm and the sample being clear when manually inspected.) | + (denotes solubility at the given condition, as determined by UV absorbance being less than 0.1 AU at 340 nm and the sample being clear when manually inspected.) | + (denotes solubility at the given condition, as determined by UV absorbance being less than 0.1 AU at 340 nm and the sample being clear when manually inspected.) |
|  |  |  | 5.4 | CC[C@H](C)[C@@H]1NC(=O)[C@@H](NC(=O)CN(C)C(=O)[C@H](CCC(=O)O)NC(=O)[C@H](CO)NC(C)=O)CSSC[C@@H](C(=O)N[C@H](C(=O)N[C@@H](CCC(=O)O)C(=O)N[C@@H](C)C(N)=O)[C@@H](C)O)NC(=O)[C@H](CCCNC(=N)N)NC(=O)[C@H](Cc2c[nH]cn2)NC(=O)[C@H](CCC(=O)O)NC(=O)CNC(=O)[C@H](Cc2c[nH]c3ccccc23)NC(=O)[C@H](CC(=O)O)NC(=O)[C@H](CCC(N)=O)NC(=O)[C@H](Cc2cn(C)c3ccccc23)NC1=O [Compound 82] (Ac-SE[Sar]CI[Trp(1-Me)]QDWGEHRCTEA-NH2; disulfide 4-14) | < 100 |  |  |  |  |  |  |
